In patent US8399473:

Details: from C=Cc1ccc(N2C(=O)N=C(NC3CCCCC3)C23CCN(Cc2ccc(I)cc2)CC3)cc1; cc_pd bond; 2 steps

O=C1N=C(NC2CCCCC2)C23CCN(CC2)Cc2ccc(cc2)CCc2ccc(cc2)N13
ring closure, yield of all isomers: 2.3%
